Laboratory results: ChEMBL document CHEMBL1156536, “Thiocarbamates as non-nucleoside HIV-1 reverse transcriptase inhibitors. Part 2: Parallel synthesis, molecular modelling and structure-activity relationship studies on analogues of O-(2-phenylethyl)-N-phenylthiocarbamate” (Bioorg Med Chem, 2008)

Test system: Human immunodeficiency virus 1
Assay: Antiviral activity against HIV1 in human MT4 cells assessed as inhibition of virus-induced cytopathogenicity by MTT assay
Assay type: functional, organism-based
Details: Human immunodeficiency virus 1, MT4

Row | Structure (SMILES) | EC50 [µM]
1 | O=[N+]([O-])c1ccc(NC(=S)OCCc2cccc(Cl)c2)cc1 | 1.5
2 | CC(COC(=S)Nc1ccc(Cl)c([N+](=O)[O-])c1)c1ccccc1 (racemic) | 0.5
3 | CC(OC(=S)Nc1ccc(Cl)cc1)c1cccc2ccccc12 (racemic) | 82
4 | COc1cccc(CCOC(=S)Nc2ccc(Cl)c([N+](=O)[O-])c2)c1 | 2
5 | COc1ccc(NC(=S)OC(C)COc2ccccc2)cc1 (racemic) | > 100
6 | O=[N+]([O-])c1ccc(NC(=S)OCCc2ccc(Br)cc2)cc1 | 7.9
7 | CC(COc1ccccc1)OC(=S)Nc1ccc(Cl)cc1 (racemic) | 1.6
8 | CC(OC(=S)Nc1ccccc1)c1ccc(Cl)cc1 (racemic) | 5.3
9 | O=[N+]([O-])c1ccc(NC(=S)OCCc2ccccc2O)cc1 | 10
10 | O=[N+]([O-])c1ccc(NC(=S)OCCOc2ccccc2)cc1 | 8.5
11 | Oc1ccccc1OCCOC(=S)Nc1ccccc1 | 19
12 | CC(Cc1ccccc1)OC(=S)Nc1ccc([N+](=O)[O-])cc1 (racemic) | 1.3
13 | O=[N+]([O-])c1ccc(NC(=S)OCCc2ccccc2Cl)cc1 | 0.4
14 | CC(COC(=S)Nc1ccc([N+](=O)[O-])cc1)c1ccccc1 (racemic) | 0.6
15 | CC(COc1ccccc1)OC(=S)Nc1ccc([N+](=O)[O-])cc1 (racemic) | 2.6
16 | O=[N+]([O-])c1ccc(NC(=S)OCCc2ccc(O)cc2)cc1 | > 41
17 | O=[N+]([O-])c1ccc(OCCOC(=S)Nc2ccc(Cl)cc2)cc1 | > 72
18 | S=C(Nc1ccccc1)OC1Cc2ccccc2C1 | 12
19 | S=C(Nc1ccccc1)OCCCc1ccccc1 | 67
20 | O=[N+]([O-])c1ccc(NC(=S)OCCOc2ccc(Br)cc2)cc1 | > 100
21 | COc1ccc(CCOC(=S)Nc2ccc([N+](=O)[O-])cc2)cc1 | 1.4
22 | S=C(Nc1ccccc1)OCCOc1ccccc1 | 5.8
23 | CC(OC(=S)Nc1ccc(Cl)cc1)c1ccc2ccccc2c1 (racemic) | 26
24 | O=[N+]([O-])c1ccc(NC(=S)OCCc2ccc(Cl)cc2)cc1 | 13
25 | CC(Cc1ccccc1)OC(=S)Nc1ccccc1 (racemic) | 9

Test system: not listed separately
Assay: Cytotoxicity against mock-infected human MT4 cells by MTT assay
Assay type: cell-based
Details: not given

Row | Structure (SMILES) | CC50 [µM]
26 | S=C(Nc1ccc(Cl)cc1)OCCc1ccccc1 | > 100
27 | COc1ccc(NC(=S)OCCc2ccccc2)cc1 | 36
28 | S=C(NCCc1ccccn1)Nc1ccc(Br)cn1 [TROVIRDINE] | 60
29 | O=[N+]([O-])c1ccc(NC(=S)OCCc2cccc(Cl)c2)cc1 | > 100
30 | CC(COC(=S)Nc1ccc(Cl)c([N+](=O)[O-])c1)c1ccccc1 (racemic) | 41
31 | CC(OC(=S)Nc1ccc(Cl)cc1)c1cccc2ccccc12 (racemic) | > 100
32 | S=C(Nc1ccccc1)OCCc1ccccc1 | 100
33 | COc1cccc(CCOC(=S)Nc2ccc(Cl)c([N+](=O)[O-])c2)c1 | 43
34 | COc1ccc(NC(=S)OC(C)COc2ccccc2)cc1 (racemic) | > 100
35 | Cc1ccc(NC(=S)OCCc2ccccc2)cc1 | > 100
36 | O=[N+]([O-])c1ccc(NC(=S)OCCc2ccc(Br)cc2)cc1 | > 100
37 | CC(COc1ccccc1)OC(=S)Nc1ccc(Cl)cc1 (racemic) | > 100
38 | CC(OC(=S)Nc1ccccc1)c1ccc(Cl)cc1 (racemic) | > 100
39 | O=[N+]([O-])c1ccc(NC(=S)OCCc2ccccc2O)cc1 | 36
40 | O=[N+]([O-])c1ccc(NC(=S)OCCOc2ccccc2)cc1 | > 100
41 | Oc1ccccc1OCCOC(=S)Nc1ccccc1 | > 100

Row | Structure (SMILES) | CC50 [µM]
42 | CC(Cc1ccccc1)OC(=S)Nc1ccc([N+](=O)[O-])cc1 (racemic) | 39
43 | O=[N+]([O-])c1ccc(NC(=S)OCCc2ccccc2Cl)cc1 | > 100
44 | O=[N+]([O-])c1ccc(NC(=S)OCCc2ccccc2)cc1 | > 100
45 | CC(COC(=S)Nc1ccc([N+](=O)[O-])cc1)c1ccccc1 (racemic) | > 100
46 | CC(COc1ccccc1)OC(=S)Nc1ccc([N+](=O)[O-])cc1 (racemic) | > 100
47 | O=[N+]([O-])c1ccc(NC(=S)OCCc2ccc(O)cc2)cc1 | 41
48 | O=[N+]([O-])c1ccc(OCCOC(=S)Nc2ccc(Cl)cc2)cc1 | 72
49 | S=C(Nc1ccccc1)OC1Cc2ccccc2C1 | > 100
50 | S=C(Nc1ccccc1)OCCCc1ccccc1 | > 100
51 | O=[N+]([O-])c1ccc(NC(=S)OCCOc2ccc(Br)cc2)cc1 | > 100
52 | COc1ccc(CCOC(=S)Nc2ccc([N+](=O)[O-])cc2)cc1 | > 100
53 | S=C(Nc1ccccc1)OCCOc1ccccc1 | > 100
54 | CC(OC(=S)Nc1ccc(Cl)cc1)c1ccc2ccccc2c1 (racemic) | > 100
55 | O=[N+]([O-])c1ccc(NC(=S)OCCc2ccc(Cl)cc2)cc1 | > 100
56 | CC(Cc1ccccc1)OC(=S)Nc1ccccc1 (racemic) | > 100

Test system: not listed separately
Assay: Selectivity index, ratio of CC50 for human MT4 cells to EC50 for HIV1
Assay type: toxicity, cell-based
Details: read-out: Ratio CC50/EC50

Row | Structure (SMILES) | selectivity ratio
57 | S=C(NCCc1ccccn1)Nc1ccc(Br)cn1 [TROVIRDINE] | 3000
58 | O=[N+]([O-])c1ccc(NC(=S)OCCc2cccc(Cl)c2)cc1 | > 67
59 | CC(COC(=S)Nc1ccc(Cl)c([N+](=O)[O-])c1)c1ccccc1 (racemic) | 82
60 | CC(OC(=S)Nc1ccc(Cl)cc1)c1cccc2ccccc12 (racemic) | > 1.2
61 | COc1cccc(CCOC(=S)Nc2ccc(Cl)c([N+](=O)[O-])c2)c1 | 22
62 | O=[N+]([O-])c1ccc(NC(=S)OCCc2ccc(Br)cc2)cc1 | > 13
63 | CC(COc1ccccc1)OC(=S)Nc1ccc(Cl)cc1 (racemic) | > 63
64 | CC(OC(=S)Nc1ccccc1)c1ccc(Cl)cc1 (racemic) | > 19
65 | O=[N+]([O-])c1ccc(NC(=S)OCCc2ccccc2O)cc1 | 3.6
66 | O=[N+]([O-])c1ccc(NC(=S)OCCOc2ccccc2)cc1 | > 12
67 | Oc1ccccc1OCCOC(=S)Nc1ccccc1 | > 5.2
68 | CC(Cc1ccccc1)OC(=S)Nc1ccc([N+](=O)[O-])cc1 (racemic) | 30
69 | O=[N+]([O-])c1ccc(NC(=S)OCCc2ccccc2Cl)cc1 | > 250
70 | CC(COC(=S)Nc1ccc([N+](=O)[O-])cc1)c1ccccc1 (racemic) | > 167
71 | CC(COc1ccccc1)OC(=S)Nc1ccc([N+](=O)[O-])cc1 (racemic) | > 38
72 | O=[N+]([O-])c1ccc(NC(=S)OCCc2ccc(O)cc2)cc1 | < 1
73 | O=[N+]([O-])c1ccc(OCCOC(=S)Nc2ccc(Cl)cc2)cc1 | < 1
74 | S=C(Nc1ccccc1)OC1Cc2ccccc2C1 | > 8.3
75 | S=C(Nc1ccccc1)OCCCc1ccccc1 | > 1.5
76 | COc1ccc(CCOC(=S)Nc2ccc([N+](=O)[O-])cc2)cc1 | > 71
77 | S=C(Nc1ccccc1)OCCOc1ccccc1 | > 17
78 | CC(OC(=S)Nc1ccc(Cl)cc1)c1ccc2ccccc2c1 (racemic) | > 3.8
79 | O=[N+]([O-])c1ccc(NC(=S)OCCc2ccc(Cl)cc2)cc1 | > 7.7
80 | CC(Cc1ccccc1)OC(=S)Nc1ccccc1 (racemic) | > 11

Test system: Human immunodeficiency virus 1
Assay: Reduction of HIV1 p24 antigen level in virus infected C8166 cells
Assay type: functional
Details: Human immunodeficiency virus 1, C8166

Row | EC90 [µM] | Structure (SMILES)
81 | 0.015 | S=C(NCCc1ccccn1)Nc1ccc(Br)cn1 [TROVIRDINE]
82 | 0.6 | CC(COC(=S)Nc1ccc([N+](=O)[O-])cc1)c1ccccc1 (racemic)

Test system: Human immunodeficiency virus 1
Assay: Antiviral activity against HIV1 with reverse transcriptase K103N/Y181C mutation in human MT4 cells assessed as inhibition of virus-induced cytopathogenicity by MTT assay
Assay type: functional, organism-based
Details: Human immunodeficiency virus 1, MT4

Row | Structure (SMILES) | EC50 [µM]
83 | O=C1Nc2ccc(Cl)cc2C(C#CC2CC2)(C(F)(F)F)O1 (single isomer, unassigned) [EFAVIRENZ] | 0.04
